target: T1, HGFR (Homo sapiens, UniProt P08581); experiment: Inhibitory activity against the HGFR autophosphorylation using ELISA (MKN-45 cells); format: cell-based; details: 1 hr with test substance
T1 construct: endogenous in cells; host or cells: MKN-45 human gastric cancer cells
Method in brief: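 HGFR autophosphorylation measured by sandwich ELISA: anti-phosphotyrosine PY20 capture, anti-HGFR detection, HRP secondary, TMB read at 450 nm. Lysates came from MKN-45 cells given test substance for 1 h at 37° C in 1% FBS RPMI1640. Percent activity normalised between no-compound extract and lysis buffer alone.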

T1 sequence (P08581 25-1390): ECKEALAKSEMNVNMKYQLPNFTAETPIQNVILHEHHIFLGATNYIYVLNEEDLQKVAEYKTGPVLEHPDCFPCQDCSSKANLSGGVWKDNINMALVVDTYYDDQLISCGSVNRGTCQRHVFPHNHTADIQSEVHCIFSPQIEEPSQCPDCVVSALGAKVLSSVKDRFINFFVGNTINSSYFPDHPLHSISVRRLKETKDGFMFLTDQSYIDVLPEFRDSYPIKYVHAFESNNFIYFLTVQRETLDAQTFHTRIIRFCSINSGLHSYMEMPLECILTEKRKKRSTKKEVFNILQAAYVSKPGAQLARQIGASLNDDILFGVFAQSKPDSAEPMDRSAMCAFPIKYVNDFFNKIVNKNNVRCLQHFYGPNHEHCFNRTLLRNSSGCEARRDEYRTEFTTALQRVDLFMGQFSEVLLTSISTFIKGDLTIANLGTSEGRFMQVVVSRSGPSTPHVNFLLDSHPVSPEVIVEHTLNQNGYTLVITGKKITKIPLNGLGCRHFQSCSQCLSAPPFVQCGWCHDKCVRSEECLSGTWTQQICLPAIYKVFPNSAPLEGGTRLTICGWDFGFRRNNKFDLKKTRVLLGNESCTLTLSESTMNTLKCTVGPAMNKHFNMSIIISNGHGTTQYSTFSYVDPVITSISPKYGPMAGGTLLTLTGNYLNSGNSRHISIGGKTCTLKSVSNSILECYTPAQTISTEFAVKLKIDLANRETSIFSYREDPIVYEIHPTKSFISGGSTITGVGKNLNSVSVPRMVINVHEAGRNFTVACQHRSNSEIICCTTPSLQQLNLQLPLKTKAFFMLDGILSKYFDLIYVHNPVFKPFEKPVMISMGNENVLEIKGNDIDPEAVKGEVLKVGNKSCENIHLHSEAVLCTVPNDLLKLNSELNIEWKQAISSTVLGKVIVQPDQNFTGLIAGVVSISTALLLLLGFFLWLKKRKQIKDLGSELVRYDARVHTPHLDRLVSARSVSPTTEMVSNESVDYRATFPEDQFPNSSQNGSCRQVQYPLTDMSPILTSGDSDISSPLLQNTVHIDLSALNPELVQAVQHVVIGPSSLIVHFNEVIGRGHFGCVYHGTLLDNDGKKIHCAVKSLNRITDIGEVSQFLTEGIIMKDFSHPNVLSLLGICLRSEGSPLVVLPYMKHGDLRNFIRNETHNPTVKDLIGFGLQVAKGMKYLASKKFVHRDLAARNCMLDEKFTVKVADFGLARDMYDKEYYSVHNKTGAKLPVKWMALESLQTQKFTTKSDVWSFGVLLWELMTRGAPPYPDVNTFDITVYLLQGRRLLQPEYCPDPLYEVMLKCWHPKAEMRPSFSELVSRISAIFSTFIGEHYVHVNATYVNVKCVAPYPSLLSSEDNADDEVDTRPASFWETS

Compound	IC50 [nM]
CN1CCC(N(C)C(=O)Nc2cc(Oc3ccc(NC(=O)C4(C(=O)Nc5ccc(F)cc5F)CC4)c(F)c3)ccn2)CC1 [Example 56, N-(2,4-Difluorophenyl)-N′-(2-fluoro-4-{[2-({[methyl(1-methylpiperidin-4-yl)amino]carbonyl}amino)pyridin-4-yl]oxy}phenyl)cyclopropane-1,1-dicarboxamide]	41
O=C(Nc1cc(Oc2ccc(NC(=O)C3(C(=O)Nc4ccc(F)cc4)CC3)c(F)c2)ccn1)N1CCOCC1 [Example 63, N-[2-Fluoro-4-({2-[(morpholin-4-ylcarbonyl)amino]pyridin-4-yl}oxy)phenyl]-N′-(4-fluorophenyl)cyclopropane-1,1-dicarboxamide]	21
CN1CCC(N(C)C(=O)Nc2cc(Oc3ccc(NC(=O)C4(C(=O)Nc5ccccc5)CC4)c(F)c3)ccn2)CC1 [Example 48, N-(2-Fluoro-4-{[2-({[methyl(1-methylpiperidin-4-yl)amino]carbonyl}amino)pyridin-4-yl]oxy}phenyl)-N′-phenylcyclopropane-1,1-dicarboxamide]	12
CN1CCC(N(C)C(=O)Nc2cc(Oc3cc(F)c(NC(=O)C4(C(=O)Nc5ccc(F)cc5)CC4)cc3F)ncn2)CC1 [Example 100, N-(2,5-Difluoro-4-{[4-({[methyl(1-methylpiperidin-4-yl)amino]carbonyl}amino)pyrimidin-6-yl]oxy}phenyl)-N′-(4-fluorophenyl)cyclopropane-1,1-dicarboxamide]	9.4
O=C(Nc1cc(Oc2ccc(NC(=O)C3(C(=O)Nc4ccc(F)cc4)CC3)c(F)c2)ccn1)N1CCC(N2CCCC2)CC1 [Example 4, N-(4-Fluorophenyl)-N′-{2-fluoro-4-[(2-{[(4-pyrrolidin-1-ylpiperidin-1-yl)carbonyl]amino}pyridin-4-yl)oxy]phenyl}cyclopropane-1,1-dicarboxamide]	14
CN1CCC(N(C)C(=O)Nc2cc(Oc3ccc(NC(=O)C4(C(=O)Nc5ccccc5F)CC4)c(F)c3)ccn2)CC1 [Example 57, N-(2-Fluoro-4-{[2-({[methyl(1-methylpiperidin-4-yl)amino]carbonyl}amino)pyridin-4-yl]oxy}phenyl)-N′-(2-fluorophenyl)cyclopropane-1,1-dicarboxamide]	82
CN(C)[C@H]1CCN(C(=O)Nc2cc(Oc3ccc(NC(=O)C4(C(=O)Nc5ccc(F)cc5)CC4)c(F)c3)ccn2)C1 [Example 46, N-(4-{[2-({[(3S)-3-(Dimethylamino)pyrrolidin-1-yl]carbonyl}amino)pyridin-4-yl]oxy}-2-fluorophenyl)-N′-(4-fluorophenyl)cyclopropane-1,1-dicarboxamide]	19
CN(C)C1CCN(C(=O)Nc2cc(Oc3ccc(NC(=O)C4(C(=O)Nc5ccc(F)cc5)CC4)c(F)c3)ccn2)CC1 [Example 18, N-(4-{[2-({[4-(Dimethylamino)piperidin-1-yl]carbonyl}amino)pyridin-4-yl]oxy}-2-fluorophenyl)-N′-(4-fluorophenyl)cyclopropane-1,1-dicarboxamide]	39
O=C(Nc1cc(Oc2ccc(NC(=O)C3(C(=O)Nc4ccc(F)cc4)CC3)c(F)c2)ccn1)N1CCC(N2CCNCC2)CC1 [Example 71, N-(4-Fluorophenyl)-N′-{2-fluoro-4-[(2-{[(4-piperazin-1-ylpiperidin-1-yl)carbonyl]amino}pyridin-4-yl)oxy]phenyl}cyclopropane-1,1-dicarboxamide]	11
CCN(CC)CCCNC(=O)Nc1cc(Oc2ccc(NC(=O)C3(C(=O)Nc4ccc(F)cc4)CC3)c(Cl)c2)ccn1 [Example 43, N-[2-Chloro-4-({2-[({[3-(diethylamino)propyl]amino}carbonyl)amino]pyridin-4-yl}oxy)phenyl]-N′-(4-fluorophenyl)cyclopropane-1,1-dicarboxamide]	330
O=C(Nc1cc(Oc2ccc(NC(=O)C3(C(=O)Nc4ccc(F)cc4)CC3)c(F)c2)ccn1)N1CCCC1 [Example 62, N-(4-Fluorophenyl)-N′-[2-fluoro-4-({2-[(pyrrolidin-1-ylcarbonyl)amino]pyridin-4-yl}oxy)phenyl]cyclopropane-1,1-dicarboxamide]	11
CN(C)C1CN(C2CCN(C(=O)Nc3cc(Oc4ccc(NC(=O)C5(C(=O)Nc6ccccc6)CC5)c(F)c4)ccn3)CC2)C1 [Example 55]	16
CN1CCC(N(C)C(=O)Nc2cc(Oc3ccc(NC(=O)C4(C(=O)Nc5ccc(F)cc5)CC4)cc3F)ncn2)CC1 [Example 33, N-(3-Fluoro-4-{[6-({[methyl(1-methylpiperidin-4-yl)amino]carbonyl}amino)pyrimidin-4-yl]oxy}phenyl)-N′-(4-fluorophenyl)cyclopropane-1,1-dicarboxamide]	25
CN(C)[C@@H]1CCN(C(=O)Nc2cc(Oc3ccc(NC(=O)C4(C(=O)Nc5ccc(F)cc5)CC4)cc3F)ccn2)C1 [Example 36, N-(4-{[2-({[(3R)-3-(Dimethylamino)pyrrolidin-1-yl]carbonyl}amino)pyridin-4-yl]oxy}-3-fluorophenyl)-N′-(4-fluorophenyl)cyclopropane-1,1-dicarboxamide]	15
O=C(Nc1cc(Oc2ccc(NC(=O)C3(C(=O)Nc4ccc(F)cc4)CC3)c(F)c2)ccn1)N1CCC1 [Example 61, N-[4-({2-[(Azetidin-1-ylcarbonyl)amino]pyridin-4-yl]oxy}-2-fluorophenyl]-N′-(4-fluorophenyl)cyclopropane-1,1-dicarboxamide]	8
O=C(Nc1cc(Oc2ccc(NC(=O)C3(C(=O)Nc4ccc(F)cc4)CC3)cc2)ccn1)N1CCCC1 [Example 69, N-(4-Fluorophenyl)-N′-[4-({2-[(pyrrolidin-1-ylcarbonyl)amino]pyridin-4-yl}oxy)phenyl]cyclopropane-1,1-dicarboxamide]	37
O=C(Nc1cc(Oc2ccc(NC(=O)C3(C(=O)Nc4ccc(F)cc4)CC3)cc2)ccn1)N1CCC1 [Example 70, N-[4-({2-[(Azetidin-1-ylcarbonyl)amino]pyridin-4-yl}oxy)phenyl]-N′-(4-fluorophenyl)cyclopropane-1,1-dicarboxamide]	27
CN(C)[C@H]1CCN(C(=O)Nc2cc(Oc3ccc(NC(=O)C4(C(=O)Nc5ccc(F)cc5)CC4)cc3)ccn2)C1 [Example 41, N-(4-{[2-({[(3S)-3-(Dimethylamino)pyrrolidin-1-yl]carbonyl}amino)pyridin-4-yl]oxy}phenyl)-N′-(4-fluorophenyl)cyclopropane-1,1-dicarboxamide]	16
COC1CN(C(=O)Nc2cc(Oc3ccc(NC(=O)C4(C(=O)Nc5ccc(F)cc5)CC4)c(F)c3)ccn2)C1 [Example 78, N-[2-Fluoro-4-[(2-{[(3-methoxyazetidin-1-yl)carbonyl]amino}pyridin-4-yl)oxy]phenyl}-N′-(4-fluorophenyl)cyclopropane-1,1-dicarboxamide]	15
CN(C)C1CN(C2CCN(C(=O)Nc3cc(Oc4ccc(NC(=O)C5(C(=O)Nc6ccc(F)cc6)CC5)cc4)ccn3)CC2)C1 [Example 38, N-[4-({2-[({4-[3-(Dimethylamino)azetidin-1-yl]piperidin-1-yl}carbonyl)amino]pyridin-4-yl}oxy)phenyl]-N′-(4-fluorophenyl)cyclopropane-1,1-dicarboxamide]	18
O=C(Nc1cc(Oc2cc(F)c(NC(=O)C3(C(=O)Nc4ccc(F)cc4)CC3)cc2F)ccn1)N1CCC(O)CC1 [Example 105]	8.6
